This is an account of results in patent US9309263B2, “Fused multi-cyclic sulfone compounds as inhibitors of beta-secretase and methods of use thereof” (AMGEN INC., priority 2013, dated 2016).

One test has as its target Cathepsin D (Cat D) (Homo sapiens, UniProt P07339). Briefly: In vitro enzymatic Cathepsin D (Cat D) FRET assay. Type of test: biochemical. Summed up: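 Recombinant CHO-expressed enzyme (9 nM) pre-incubated 1 h with serially diluted inhibitor in 0.05 M citrate pH 3.5, 10% DMSO final, 5 mM CHAPS. Reaction started with 20 nM FRET peptide substrate, run 1 h, stopped with Tris to neutral pH; fluorescence read at ex 500/em 580 nm.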

Test [1] has as its system Aβ 40 in conditioned medium of cells stably expressing Amyloid Precursor Protein (APP). As to the kind of experiment: In vitro BACE cell-based assay (Aβ 40 sandwich ELISA). The following applies: Homo sapiens, HEK293. In outline:
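APP-expressing cells, 24 h pre-culture in DMEM/10% FBS, treated 24 h with 10-point compound dilutions from 100 or 10 μM top, 0.1% DMSO final. Secreted Aβ40 quantified by sandwich ELISA (pAb40 capture, biotinylated 6E10 detection, europium TRF); IC50 from percent inhibition versus concentration.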
Background: In an ELISA, binding on a coated surface is turned into a signal by an enzyme label.

Test [2] deals with Beta Secretase enzyme (BACE) (Homo sapiens, UniProt P56817). As to the kind of experiment: In vitro enzymatic BACE FRET assay. Type of test: biochemical. The following applies: read-out: BACE1 FRET assay IC50. Summed up: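 Enzyme (0.2 nM) pre-incubated 1 h with serially diluted inhibitors in 0.05 M acetate pH 4.2, 10% DMSO, 100 uM genapol. Reaction started with 50 nM fluorophore/quencher peptide FRET substrate, run 1 h, stopped with Tris to neutral pH. Fluorescence read at excitation 488 nm, […].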

The mark [3] stands for this setting: Cathepsin D FRET assay, read-out: CatD IC50.
The mark [4] stands for this setting: average IC50, HEK cell assay, Aβ 40 readout.
[5] abbreviates: average IC50, in vitro enzymatic BACE FRET assay.
[6] abbreviates: text summary referring to data in Table 2.

Structures are written as SMILES. Where two headings read alike, the source gives them in different places.

Chain of Cathepsin D (Cat D) (P07339 65-412, species assumed): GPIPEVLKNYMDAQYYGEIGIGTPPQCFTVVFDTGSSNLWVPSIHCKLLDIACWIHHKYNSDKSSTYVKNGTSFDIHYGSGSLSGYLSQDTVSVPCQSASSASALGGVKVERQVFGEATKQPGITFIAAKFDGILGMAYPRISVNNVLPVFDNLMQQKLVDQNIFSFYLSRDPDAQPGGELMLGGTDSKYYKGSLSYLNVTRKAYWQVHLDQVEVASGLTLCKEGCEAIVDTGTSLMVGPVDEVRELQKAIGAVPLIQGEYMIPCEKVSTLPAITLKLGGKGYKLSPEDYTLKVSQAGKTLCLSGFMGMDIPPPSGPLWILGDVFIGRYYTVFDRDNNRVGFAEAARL
Chain of Beta Secretase enzyme (BACE) (P56817 46-501): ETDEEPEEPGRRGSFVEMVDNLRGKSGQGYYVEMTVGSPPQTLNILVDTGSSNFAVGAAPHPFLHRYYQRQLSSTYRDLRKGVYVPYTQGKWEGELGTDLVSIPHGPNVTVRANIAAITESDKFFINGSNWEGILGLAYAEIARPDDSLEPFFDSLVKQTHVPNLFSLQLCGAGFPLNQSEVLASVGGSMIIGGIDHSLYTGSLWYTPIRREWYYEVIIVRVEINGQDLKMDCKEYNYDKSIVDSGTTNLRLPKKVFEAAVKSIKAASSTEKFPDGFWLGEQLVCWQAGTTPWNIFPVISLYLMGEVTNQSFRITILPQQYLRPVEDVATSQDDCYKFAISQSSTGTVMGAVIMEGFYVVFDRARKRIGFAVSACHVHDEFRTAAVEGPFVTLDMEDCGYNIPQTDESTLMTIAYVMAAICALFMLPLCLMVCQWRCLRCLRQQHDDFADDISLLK

In the case of `CC1(C)C(N)=N[C@]2(C)c3cc(NC(=O)c4cnc(OCC5CC5)cn4)ccc3OCC[C@H]2S1(=O)=O` [Example 88, N-((4aR,11bR)-2-amino-3,3,11b-trimethyl-4,4-dioxido-4a,5,6,11b-tetrahydro-3H-benzo[6,7]oxepino[4,5-b][1,4]thiazin-10-yl)-5-(cyclopropylmethoxy)pyrazine-2-carboxamide], the values for the IC50 (at Cathepsin D (Cat D) (setting [3]); in test [1] (setting [4]); in test [2] (setting [5])) were 745 µM, 0.044 µM and 0.01 µM, respectively.
As to `Cc1cc(C(F)(F)F)cnc1C(=O)Nc1ccc2c(c1)[C@@]1(C)N=C(N)C(C)(C)S(=O)(=O)[C@@H]1CCO2` [Example 188, N-((4aR,11bR)-2-amino-3,3,11b-trimethyl-4,4-dioxido-4a,5,6,11b-tetrahydro-3H-[1]benzoxepino[4,5-b][1,4]thiazin-10-yl)-3-methyl-5-(trifluoromethyl)-2-pyridinecarboxamide], the IC50 at Cathepsin D (Cat D) (read-out: CatD IC50) came out at 1550 µM; in test [1] (HEK cells, average IC50) it was 0.003 µM; in test [2] (average IC50), 0.008 µM.
In the case of `CC#C[C@@H](C)Oc1cnc(C(=O)Nc2ccc3c(c2)[C@@]2(C)N=C(N)C(C)(C)S(=O)(=O)[C@@H]2CCO3)cn1` [Example 16, N-((4aR,11bR)-2-amino-3,3,11b-trimethyl-4,4-dioxido-4a,5,6,11b-tetrahydro-3H-[1]benzoxepino[4,5-b][1,4]thiazin-10-yl)-5-(((1R)-1-methyl-2-butyn-1-yl)oxy)-2-pyrazinecarboxamide], the IC50 on Cathepsin D (Cat D) (read-out: CatD IC50) is 979 µM; at Cathepsin D (Cat D) (setting [6]), more than 800 µM; in test [1] (HEK cell, average IC50), 0.138 µM; in test [2] (average IC50), 0.03 µM.
As to `Cc1cnc(COc2cnc(C(=O)Nc3ccc4c(c3)[C@@]3(C)N=C(N)C(C)(C)S(=O)(=O)[C@@H]3C[C@H](C)O4)cn2)o1` [Example 80, N-((4aR,6S,11bR)-2-amino-3,3,6,11b-tetramethyl-4,4-dioxido-4a,5,6,11b-tetrahydro-3H-[1]benzoxepino[4,5-b][1,4]thiazin-10-yl)-5-((5-methyl-1,3-oxazol-2-yl)methoxy)-2-pyrazinecarboxamide], the IC50 is 1490 µM on Cathepsin D (Cat D) (read-out: CatD IC50); more than 1200 µM on Cathepsin D (Cat D) (setting [6]); 0.001 µM in test [1] (HEK cell, average IC50); 0.004 µM in test [2] (average IC50).
As for `CC1(C)C(N)=N[C@]2(C)c3cc(NC(=O)c4ncc(Cl)cc4Cl)ccc3OCC[C@H]2S1(=O)=O` [Example 24, N-((4aR,11bR)-2-amino-3,3,11b-trimethyl-4,4-dioxido-4a,5,6,11b-tetrahydro-3H-[1]benzoxepino[4,5-b][1,4]thiazin-10-yl)-3,5-dichloro-2-pyridinecarboxamide], the IC50 at Cathepsin D (Cat D) (read-out: CatD IC50) is 969 µM; on Cathepsin D (Cat D) (setting [6]) it was more than 800 µM; in test [1] (HEK cell, average IC50) it was 0.001 µM; in test [2] (average IC50), 0.003 µM.
On to `COc1cnc(C(=O)Nc2ccc3c(c2)[C@@]2(C)N=C(N)C(C)(C)S(=O)(=O)[C@@H]2CCO3)c(Cl)c1` [Example 173, N-((4aR,11bR)-2-amino-3,3,11b-trimethyl-4,4-dioxido-4a,5,6,11b-tetrahydro-3H-[1]benzoxepino[4,5-b][1,4]thiazin-10-yl)-3-chloro-5-methoxy-2-pyridinecarboxamide], for which the IC50 was more than 400 µM on Cathepsin D (Cat D) (read-out: CatD IC50); 0.007 µM in test [1] (HEK cells, average IC50); 0.005 µM in test [2] (average IC50).
Regarding `Cc1cc(Cl)cnc1C(=O)Nc1ccc2c(c1)[C@@]1(C)N=C(N)C(C)(C)S(=O)(=O)[C@H]1CC(C)(C)O2` [Example 184, N-((4aS,11bR)-2-amino-3,3,6,6,11b-pentamethyl-4,4-dioxido-4a,5,6,11b-tetrahydro-3H-[1]benzoxepino[4,5-b][1,4]thiazin-10-yl)-5-chloro-3-methyl-2-pyridinecarboxamide], the IC50 at Cathepsin D (Cat D) (read-out: CatD IC50) amounted to 403 µM; in test [1] (HEK cells, average IC50), 0.004 µM; in test [2] (average IC50), 0.008 µM.
As for `COc1cnc(C(=O)Nc2ccc3c(c2)[C@@]2(C)N=C(N)C(C)(C)S(=O)(=O)[C@@H]2CC(C)(C)O3)c(C)n1` [Example 101, N-((4aR,11bR)-2-amino-3,3,6,6,11b-pentamethyl-4,4-dioxido-4a,5,6,11b-tetrahydro-3H-[1]benzoxepino[4,5-b][1,4]thiazin-10-yl)-5-methoxy-3-methyl-2-pyrazinecarboxamide], the results for the IC50 (at Cathepsin D (Cat D) (setting [3]); in test [1] (setting [4]); in test [2] (setting [5])) were 835 µM, 0.019 µM and 0.029 µM, respectively.
For `Cc1cc(OC(F)F)cnc1C(=O)Nc1ccc2c(c1)[C@@]1(C)N=C(N)C(C)(C)S(=O)(=O)[C@]1(F)CCO2` [Example 95, N-((4aR,11bR)-2-amino-4a-fluoro-3,3,11b-trimethyl-4,4-dioxido-4a,5,6,11b-tetrahydro-3H-[1]benzoxepino[4,5-b][1,4]thiazin-10-yl)-5-(difluoromethoxy)-3-methyl-2-pyridinecarboxamide], in that order: 248 µM, 0.061 µM and 0.014 µM.
For `Cc1c(C(=O)Nc2ccc3c(c2)[C@@]2(C)N=C(N)C(C)(C)S(=O)(=O)[C@@H]2CCC3)nc2ccc(Cl)cn12` [Example 49, N-((4aR,11bR)-2-amino-3,3,11b-trimethyl-4,4-dioxido-3,4a,5,6,7,11b-hexahydrobenzo[3,4]cyclohepta[1,2-b][1,4]thiazin-10-yl)-6-chloro-3-methylimidazo[1,2-a]pyridine-2-carboxamide], the IC50 on Cathepsin D (Cat D) (read-out: CatD IC50) worked out at 394 µM; in test [1] (HEK cell, average IC50) it was 0.013 µM; in test [2] (average IC50), 0.082 µM.
As to `CC1(C)C(N)=N[C@]2(C)c3cc(NC(=O)c4ccc(Cl)cn4)ccc3OCC[C@@]2(F)S1(=O)=O` [Example 66, N-((4aR,11bR)-2-amino-4a-fluoro-3,3,11b-trimethyl-4,4-dioxido-4a,5,6,11b-tetrahydro-3H-[1]benzoxepino[4,5-b][1,4]thiazin-10-yl)-5-chloro-2-pyridinecarboxamide], the IC50 stood at 269 µM at Cathepsin D (Cat D) (read-out: CatD IC50); 0.089 µM in test [1] (HEK cell, average IC50); 0.008 µM in test [2] (average IC50).
As for `Cc1nc(OCC2CC2)cnc1C(=O)Nc1ccc2c(c1)[C@@]1(C)N=C(N)C(C)(C)S(=O)(=O)[C@@H]1CCO2` [Example 178, N-((4aR,11bR)-2-amino-3,3,11b-trimethyl-4,4-dioxido-4a,5,6,11b-tetrahydro-3H-benzo[6,7]oxepino[4,5-b][1,4]thiazin-10-yl)-5-(cyclopropylmethoxy)-3-methylpyrazine-2-carboxamide], the IC50 was 586 µM on Cathepsin D (Cat D) (read-out: CatD IC50); 0.028 µM in test [1] (HEK cells, average IC50); 0.01 µM in test [2] (average IC50).
As to `CC#C[C@@H](C)Oc1cnc2c(Nc3ccc4c(c3)[C@@]3(C)N=C(N)C(C)(C)S(=O)(=O)[C@@H]3CCO4)ncc(F)c2c1` (single isomer, unassigned) [Example 71], the IC50 on Cathepsin D (Cat D) (read-out: CatD IC50) stood at 186 µM; in test [1] (HEK cell, average IC50) it was 2.36 µM; in test [2] (average IC50), 0.12 µM.
As for `COc1cnc(C(=O)Nc2ccc3c(c2)[C@@]2(C)N=C(N)C(C)(C)S(=O)(=O)[C@H]2CCC3)cn1` [Example 8, N-((4aS,11bR)-2-amino-3,3,11b-trimethyl-4,4-dioxido-3,4a,5,6,7,11b-hexahydrobenzo[3,4]cyclohepta[1,2-b][1,4]thiazin-10-yl)-5-methoxy-2-pyrazinecarboxamide], the IC50 on Cathepsin D (Cat D) (read-out: CatD IC50) was 1890 µM; at Cathepsin D (Cat D) (setting [6]) it was more than 1200 µM; in test [1] (HEK cell, average IC50), 0.031 µM; in test [2] (average IC50) it was 0.172 µM.
Take `Cc1cc(Cl)cnc1C(=O)Nc1ccc2c(c1)[C@@]1(C)N=C(N)C(C)(C)S(=O)(=O)[C@@H]1CCO2` [Example 6a, N-((4aR,11bR)-2-amino-3,3,11b-trimethyl-4,4-dioxido-4a,5,6,11b-tetrahydro-3H-benzo[6,7]oxepino[4,5-b][1,4]thiazin-10-yl)-5-chloro-3-methylpicolinamide]: the IC50 on Cathepsin D (Cat D) (read-out: CatD IC50) was more than 100 µM; in test [1] (HEK cell, average IC50), 0.006 µM; in test [2] (average IC50), 0.002 µM.
Consider `Cc1cc(OCC2CC2)cnc1C(=O)Nc1ccc2c(c1)[C@@]1(C)N=C(N)C(C)(C)S(=O)(=O)[C@@H]1CCO2` [Example 170, N-((4aR,11bR)-2-amino-3,3,11b-trimethyl-4,4-dioxido-4a,5,6,11b-tetrahydro-3H-[1]benzoxepino[4,5-b][1,4]thiazin-10-yl)-5-(cyclopropylmethoxy)-3-methyl-2-pyridinecarboxamide], for which the IC50 was 2050 µM at Cathepsin D (Cat D) (read-out: CatD IC50); 0.026 µM in test [1] (HEK cells, average IC50); 0.014 µM in test [2] (average IC50).
As to `C[C@]12N=C(N)C3(CCC3)S(=O)(=O)[C@@H]1CCOc1ncc(NC(=O)c3ccc(C#N)cn3)cc12` [Example 63, N-((4a′R,11b′R)-2′-amino-1113′-methyl-4′,4′-dioxido-4a′,5′,6′,11b′-tetrahydrospiro[cyclobutane-1,3′-pyrido[3′,2′:6,7]oxepino[4,5-b][1,4]thiazin]-10′-yl)-5-cyano-2-pyridinecarboxamide], the IC50 is 868 µM at Cathepsin D (Cat D) (read-out: CatD IC50); more than 800 µM on Cathepsin D (Cat D) (setting [6]); 0.164 µM in test [1] (HEK cell, average IC50); 0.036 µM in test [2] (average IC50).
`Cc1cc(Cl)cnc1C(=O)Nc1ccc2c(c1)[C@@]1(C)N=C(N)C(C)(C)S(=O)(=O)[C@@]1(C)CCO2` [Example 26, N-((4aS,11bR)-2-amino-3,3,4a,11b-tetramethyl-4,4-dioxido-4a,5,6,11b-tetrahydro-3H-[1]benzoxepino[4,5-b][1,4]thiazin-10-yl)-5-chloro-3-methyl-2-pyridinecarboxamide]: the IC50 on Cathepsin D (Cat D) (read-out: CatD IC50) was 995 µM; at Cathepsin D (Cat D) (setting [6]), more than 800 µM; in test [1] (HEK cell, average IC50) it was 0.001 µM; in test [2] (average IC50), 0.003 µM.

Broadly, the IC50 is the concentration at which inhibition is half-maximal.
